For the test, the target named is T1, human histamine H4 receptor (Homo sapiens, UniProt Q9H3N8).
T1 construct: expressed in transfected cells; host or cells: SK-N-MC cells or COS7 cells, transiently transfected; membranes prepared
T1 sequence (Q9H3N8 whole entry): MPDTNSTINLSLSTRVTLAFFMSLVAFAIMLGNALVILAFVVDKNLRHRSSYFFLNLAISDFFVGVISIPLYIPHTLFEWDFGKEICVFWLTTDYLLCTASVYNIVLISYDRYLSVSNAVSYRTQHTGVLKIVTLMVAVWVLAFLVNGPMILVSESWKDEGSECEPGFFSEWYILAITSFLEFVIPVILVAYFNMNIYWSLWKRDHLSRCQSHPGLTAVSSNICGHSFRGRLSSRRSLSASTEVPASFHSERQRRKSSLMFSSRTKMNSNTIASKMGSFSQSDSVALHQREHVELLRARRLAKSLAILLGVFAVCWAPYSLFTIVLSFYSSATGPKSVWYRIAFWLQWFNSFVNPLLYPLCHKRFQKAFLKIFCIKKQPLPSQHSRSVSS
In words: Binding Assay on Recombinant Human Histamine H4 Receptor (3H-histamine competition, membranes of transfected SK-N-MC or COS7 cells). Note: ligand 5 nM. As for the experimental part: SK-N-MC cells or COS7 cells were transiently transfected with pH4R and grown in 150 cm^2 tissue culture dishes. Cells were washed with saline solution, scraped with a cell scraper and collected by centrifugation (1000 rpm, 5 min). Cell membranes were prepared by homogenization of the cell pellet in 20 mM Tris-HCl with a polytron tissue homogenizer for 10 sec at high speed. Homogenate was centrifuged at 1000 rpm for 5 min at 4° C. The supernatant was then collected and centrifuged at 20,000×g for 25 min at 4° C. The final pellet was resuspended in 50 mM Tris-HCl. […] Incubation occurred at room temperature for 45 min. Membranes were harvested by rapid filtration over Whatman GF/C filters and washed 4 times with ice-cold 50 mM Tris HCl. Filters were then dried, mixed with scintillant and counted for radioactivity.
As usually defined, the Ki is a measure of affinity in units of concentration, obtained from inhibition or displacement. In the case of `Cc1ccc2[nH]c(-c3ccnc(NC(=O)CCCC4CCN(C)CC4)c3)nc2c1C` [Example 35, N-[4-(4,5-Dimethyl-1H-benzoimidazol-2-yl)-pyridin-2-yl]-4-(1-methyl-piperidin-4-yl)-butyramide], the Ki is 470 nM.
As for `CN1CCC(CCCC(=O)Nc2cc(-c3nc4cc(Cl)ccc4[nH]3)ccn2)CC1` [Example 36, N-[4-(5-Chloro-1H-benzoimidazol-2-yl)-pyridin-2-yl]-4-(1-methyl-piperidin-4-yl)-butyramide], the Ki was 660 nM.
With `Cc1ccc2[nH]c(-c3ccc(N(CCCC4CCN(C)CC4)C(C)C)nc3)nc2c1C` [Example 37, [5-(4,5-Dimethyl-1H-benzoimidazol-2-yl)-pyridin-2-yl]-isopropyl-[3-(1-methyl-piperidin-4-yl)-propyl]-amine], the Ki was found to be 3470 nM.
For the compound `Cc1cccc2[nH]c(-c3ccnc(NC(=O)CCCC4CCN(C)CC4)c3)nc12` [Example 38, N-[4-(4-Methyl-1H-benzoimidazol-2-yl)-pyridin-2-yl]-4-(1-methyl-piperidin-4-yl)-butyramide], the Ki was 3330 nM.
